# Results: US7790896B2, “RNA-selective probes for live cell imaging of nuclear structure and function” (New York University, priority 2006, dated 2010)
# Assays:
# [1] = Fluorescence spectrum in TE buffer of dyes selected from live cell imaging; format: physicochemical; conditions: dye 10 μM in TE buffer
# Protocol: (§1) The fluorescence spectra data in the primary screening and selected dyes titration assay study was obtained by Gemini XS plate reader. RNA solution was prepared right before the assay experiments to avoid possible degradation and contamination. In the primary screening, 1 mg/mL RNA (type VI from torula yeast) buffer solution was used. Point scans were carried out first using five Ex/Em point sets ([…], 400/500, 450/550, 500/600, 550/650 nm). Spectra scans were then carried out for the selected dyes. Excitation wavelengths were set at 350 nm, 400 nm, 450 nm, 500 nm, and 550 nm and the emission wavelengths were scanned. RNA (16S- and 23S-ribosomal from E. coli) and DNA (salmon testes) titration experiments and quantum yield/extinction coefficient determination for the three best dyes were carried out by the plate reader as well. Excitation λmax obtained from F-2500 Hitachi Fluorophotometer was used. Absorbance wavelength was determined by SpectraMax Plus^384 absorbance plate reader. […] was chosen as standard and 480 nm was used as excitation wavelength in the scanning for quantum yield determination.
# [2] = tested on: RNA (Type VI from torula yeast); experiment: In vitro solution assay (primary screening): fluorescent emission fold change upon binding to RNA; conditions: dye 10 μM, RNA 500 μg/mL in TE buffer
# Protocol: as §1
# The screening strategy used in this study is illustrated in FIG. 2. Both in vitro RNA assays and live cell imaging methods were utilized in the primary screening of the dye library. Selective binding of the dye to RNA in solution was the primary criterion for selecting lead compounds for subsequent bioimaging studies, Herein, the library dyes' fluorescent emission intensity fold change upon binding to RNA was measured in solution. Dyes showing five-fold or higher emission changes in the presence of RNA were selected (Table 3). Note the dyes listed are identified by the building blocks I and II from Table 2. For example, A4 is the product made by reacting compound A from the list of Building block I and compound 4 from the list of Building block II.
SPECTRUM EM [1],SPECTRUM EX [1],Em(nm) [2],Ex(nm) [2],Fold (fluorescent emission fold changes to RNA) [2],Compound
550 nm,450 nm,,,,C[n+]1c(C=Cc2cc(C(C)(C)C)ccc2O)ccc2ccccc21 [Dye E73]
,,610 nm,500 nm,23,CN(CCO)c1ccc(/C=C/c2cc[n+](C)cc2)cc1 [Dye A10]
610 nm,500 nm,,,,COc1ccc2c(ccc(C=Cc3ccc(-c4cccs4)s3)[n+]2C)c1 [Dye F119]
,,620 nm,500 nm,21,Cn1c(C=Cc2ccc3ccccc3[n+]2C)cc2ccccc21 [Dye E108]
,,530 nm,450 nm,26,COc1cc(OC)c(C=Cc2cc[n+](C)cc2)c(OC)c1 [Dye A144]
,,620 nm,500 nm,86,COc1ccc2c(ccc(C=Cc3ccc(N(C)CCC#N)cc3)[n+]2C)c1 [Dye F9]
570 nm,450 nm,,,,COc1ccc(-c2ccc(/C=C/c3cccc[n+]3C)o2)cc1Cl [Dye B139]
540 nm,450 nm,,,,COc1ccc2c(ccc(/C=C/c3ccc(OC)c(O)c3Cl)[n+]2C)c1 [Dye F155]
480 nm,400 nm,,,,COc1ccc(/C=C/c2ccc3ccccc3[n+]2C)cc1 [Dye E63]
,,640 nm,500 nm,14,CCN(CC)c1ccc(C=Cc2ccc3cc(OC)ccc3[n+]2C)c(C#N)c1 [Dye F132]
,,640 nm,500 nm,20,CCN(CC)c1ccc(C=Cc2ccc3cc(OC)ccc3[n+]2C)cc1 [Dye F92]
,,540 nm,450 nm,28,Cc1cc(C=Cc2cc[n+](C)cc2)c(C)n1-c1cccc(C(F)(F)F)c1 [Dye A121]
460 nm,350 nm,,,,C[n+]1ccc(C=Cc2cccc(F)c2F)c2ccccc21 [Dye D84]
,,580 nm,450 nm,8,Cc1cccc(C=Cc2cc3ccccc3n2C)[n+]1C [Dye C108]
470 nm,350 nm,,,,COc1ccc2c(ccc(C=Cc3ccccc3Br)[n+]2C)c1 [Dye F47]
490 nm,400 nm,,,,COc1ccc2c(ccc(C=Cc3cccc(Br)c3)[n+]2C)c1 [Dye F40]
560 nm,450 nm,,,,COc1ccc2c(ccc(C=Cc3ccc4c(c3)OCO4)[n+]2C)c1 [Dye F43]
,,630 nm,500 nm,21,Cn1c(/C=C/c2cc[n+](C)c3ccccc23)cc2ccccc21 [Dye D108]
,,590 nm,450 nm,8,Cn1c(/C=C/c2cc[n+](C)cc2)cc2ccccc21 [Dye A108]

SPECTRUM EM [1],SPECTRUM EX [1],Em(nm) [2],Ex(nm) [2],Fold (fluorescent emission fold changes to RNA) [2],Compound
,,630 nm,500 nm,15,CCN(CC)c1ccc(/C=C/c2cccc(C)[n+]2C)cc1 [Dye C92]
,,560 nm,450 nm,10,C[n+]1c(C=Cc2ccc3c(c2)OCO3)ccc2ccccc21 [Dye E43]
650 nm,500 nm,,,,COc1ccc2c(ccc(/C=C/c3cc4c5c(c3O)CCCN5CCC4)[n+]2C)c1 [Dye F115]
470 nm,350 nm,,,,COc1ccc2c(ccc(/C=C/c3cccc(OC)c3OC(C)=O)[n+]2C)c1 [Dye F153]
,,580 nm,450 nm,37,COc1cc(OC)c(OC)cc1/C=C/c1cc[n+](C)cc1 [Dye A8]
470 nm,350 nm,,,,CCCCCC(/C=C/c1ccc2cc(OC)ccc2[n+]1C)=C\c1ccccc1 [Dye F101]
590 nm,450 nm,,,,COc1ccc2c(ccc(/C=C/c3ccc(OC)c4ccccc34)[n+]2C)c1 [Dye F41]
480 nm,400 nm,,,,COc1ccc2c(ccc(/C=C/c3ccoc3)[n+]2C)c1 [Dye F48]
590 nm,450 nm,,,,COc1ccc2c(ccc(C=Cc3ccc4c5c(cccc35)CC4)[n+]2C)c1 [Dye F118]
,,570 nm,450 nm,9,COc1cc(OC)c(OC)cc1C=Cc1cccc(C)[n+]1C [Dye C8]
540 nm,400 nm,,,,COC(=O)c1cc(OC)cc(OC)c1C=Cc1ccc2cc(OC)ccc2[n+]1C [Dye F145]
,,610 nm,500 nm,9,Cc1cccc(/C=C/c2ccc(N(C)CCC#N)cc2)[n+]1C [Dye C9]
,,590 nm,500 nm,28,CCN(CC)c1ccc(/C=C/c2cccc[n+]2C)c(C#N)c1 [Dye B132]
,,600 nm,500 nm,28,CCN(CC)c1ccc(C=Cc2cccc[n+]2C)cc1 [Dye B92]
490 nm,400 nm,,,,COc1ccc2c(ccc(/C=C/c3ccco3)[n+]2C)c1 [Dye F45]
,,630 nm,500 nm,38,COc1ccc2c(ccc(C=Cc3ccc(N(C)CCO)cc3)[n+]2C)c1 [Dye F10]
,,600 nm,500 nm,21,CN(CCC#N)c1ccc(/C=C/c2cc[n+](C)cc2)cc1 [Dye A9]
,,560 nm,450 nm,62,COc1ccc2c(ccc(/C=C/c3c[nH]c4ccccc34)[n+]2C)c1 [Dye F4]
,,620 nm,500 nm,13,CCn1c2ccccc2c2cc(C=Cc3cc[n+](C)c4ccccc34)ccc21 [Dye D107]

SPECTRUM EM [1],SPECTRUM EX [1],Em(nm) [2],Ex(nm) [2],Fold (fluorescent emission fold changes to RNA) [2],Compound
,,560 nm,450 nm,54,COc1cc(/C=C/c2cccc[n+]2C)c(OCc2ccccc2)cc1OC [Dye B156]
550 nm,450 nm,,,,COc1ccc2c(ccc(/C=C/C3CCCN3C)[n+]2C)c1 (stereo not drawn) [Dye F74]
460 nm,350 nm,,,,COc1ccc(Oc2cccc(C=Cc3ccc4cc(OC)ccc4[n+]3C)c2)cc1 [Dye F83]
470 nm,400 nm,,,,COc1ccc2c(ccc(/C=C/c3c(C)cc(C)cc3C)[n+]2C)c1 [Dye F85]
,,580 nm,450 nm,42,COc1cc(/C=C/c2cc[n+](C)cc2)c(OCc2ccccc2)cc1OC [Dye A156]
510 nm,400 nm,,,,COc1ccc2c(ccc(/C=C/c3cccc(Br)n3)[n+]2C)c1 [Dye F128]
490 nm,400 nm,,,,COc1ccc2c(ccc(/C=C/c3cccc(C(F)(F)F)c3)[n+]2C)c1 [Dye F82]
440 nm,350 nm,,,,COc1ccc2c(ccc(/C=C/c3ccc(Br)s3)[n+]2C)c1 [Dye F77]
,,610 nm,500 nm,27,COc1ccc2c(ccc(/C=C/c3cc4ccccc4n3C)[n+]2C)c1 [Dye F108]
,,610 nm,500 nm,28,CN(C)c1ccc(C=Cc2cc[n+](C)cc2)cc1 [Dye A22]
,,660 nm,500 nm,103,CN(C)c1ccc(C=Cc2cc[n+](C)cc2)c2ccccc12 [Dye A24]
530 nm,400 nm,,,,Cc1ccc2ccccc2c1/C=C/c1cc[n+](C)c2ccccc12 [Dye D143]
,,620 nm,500 nm,17,C[n+]1c(C=Cc2cc(Br)c(Cl)c(Br)c2)ccc2ccccc21 [Dye E111]
,,630 nm,500 nm,6,Cc1cccc(/C=C/c2ccc(N(C)C)cc2)[n+]1C [Dye C22]
,,610 nm,500 nm,52,COc1ccc2c(ccc(C=Cc3cc(OC)c(OC)cc3OC)[n+]2C)c1.[I-] [Dye F8]
,,610 nm,500 nm,17,CCN(CC)c1ccc(C=Cc2cc[n+](C)cc2)c(C#N)c1 [Dye A132]
,,560 nm,450 nm,10,C[n+]1ccc(C=Cc2c(O)ccc3ccccc23)cc1 [Dye A42]
,,540 nm,450 nm,11,C[n+]1ccc(/C=C/c2c[nH]c3ccccc23)cc1 [Dye A4]
